# Assay results taken from patent publication US20230085307A1, “PYRIDAZINONE COMPOUND AND HERBICIDE” (NISSAN CHEMICAL CORPORATION, priority 2019, published 2023).
# Assays:
# late watergrass = assay: Test Example 1: herbicidal activity, application before weed generation under submerged conditions (Table 16, symbol A); assay type: in vivo, late watergrass (Echinochloa oryzicola)
# In short: (§1)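 Submerged Wagner pots (alluvial soil, 4 cm water) sown with weed seeds and planted with 2.5-leaf rice seedlings; emulsifiable concentrate diluted in water applied to water surface on sowing day. Held in greenhouse at 25-30 °C; injury scored 0-5 by herbicidal rate after three weeks.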
# Japanese bulrush = assay: Test Example 1: herbicidal activity, application before weed generation under submerged conditions (Table 16, symbol B); assay type: in vivo, Japanese bulrush (Schoenoplectus juncoides)
# In short: as §1
# oval-leafed pondweed = assay: Test Example 1: herbicidal activity, application before weed generation under submerged conditions (Table 16, symbol C); assay type: in vivo, oval-leafed pondweed (Monochoria vaginalis)
# In short: as §1
# barnyard grass [1] = assay: Test Example 3: herbicidal effect by foliage application, Wagner pot (Table 18, symbol H); assay type: in vivo, barnyard grass (Echinochloa crus-galli)
# In short: (§2)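 Plants were sown in alluvial soil held under 0.1–0.5 cm standing water and grown 14 days in a greenhouse at 25–30 °C. An emulsifiable formulation, water-diluted to the set dose, was then sprayed onto the foliage, and effects were scored three weeks later using previously defined criteria.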
# Chinese sprangletop = assay: Test Example 3: herbicidal effect by foliage application, Wagner pot (Table 18, symbol D); assay type: in vivo, chinese sprangletop (Leptochloa chinensis)
# In short: as §2
# rice flat sedge = assay: Test Example 3: herbicidal effect by foliage application, Wagner pot (Table 18, symbol E); assay type: in vivo, rice flat sedge (Cyperus iria)
# In short: as §2
# southern crabgrass [2] = assay: Test Example 4: herbicidal effect by soil treatment (Table 19, symbol F); assay type: in vivo, southern crabgrass (Digitaria ciliaris)
# In short: (§3)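 Seeds were sown in sterilized diluvial soil and covered with about 1.5 cm of soil. An emulsion formulation diluted with water to a predetermined herbicide amount was sprayed evenly onto the soil surface. Plants grew in a greenhouse at 25° C. to 30° C., and the effect was scored three weeks after application using criteria from an earlier test.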
# green foxtail [3] = assay: Test Example 4: herbicidal effect by soil treatment (Table 19, symbol G); assay type: in vivo, green foxtail (Setaria viridis)
# In short: as §3
# barnyard grass [4] = assay: Test Example 4: herbicidal effect by soil treatment (Table 19, symbol H); assay type: in vivo, barnyard grass (Echinochloa crus-galli)
# In short: as §3
# wild oat [5] = assay: Test Example 4: herbicidal effect by soil treatment (Table 19, symbol I); assay type: in vivo, wild oat (Avena fatua)
# In short: as §3
# blackgrass [6] = assay: Test Example 4: herbicidal effect by soil treatment (Table 19, symbol J); assay type: in vivo, blackgrass (Alopecurus myosuroides)
# In short: as §3
# Italian ryegrass [7] = assay: Test Example 4: herbicidal effect by soil treatment (Table 19, symbol K); assay type: in vivo, Italian ryegrass (Lolium multiflorum)
# In short: as §3
# windgrass [8] = assay: Test Example 4: herbicidal effect by soil treatment (Table 19, symbol L); assay type: in vivo, windgrass (Apera spica-venti)
# In short: as §3
# velvetleaf [9] = assay: Test Example 4: herbicidal effect by soil treatment (Table 19, symbol M); assay type: in vivo, velvetleaf (Abutilon theophrasti)
# In short: as §3
# redroot pigweed [10] = assay: Test Example 4: herbicidal effect by soil treatment (Table 19, symbol N); assay type: in vivo, redroot pigweed (Amaranthus retroflexus)
# In short: as §3
# lambsquarters [11] = assay: Test Example 4: herbicidal effect by soil treatment (Table 19, symbol O); assay type: in vivo, lambsquarters (Chenopodium album)
# In short: as §3
# chickweed [12] = assay: Test Example 4: herbicidal effect by soil treatment (Table 19, symbol P); assay type: in vivo, common chickweed (Stellaria media)
# In short: as §3
# persian speedwell [13] = assay: Test Example 4: herbicidal effect by soil treatment (Table 19, symbol R); assay type: in vivo, Persian speedwell (Veronica persica)
# In short: as §3
# southern crabgrass [14] = assay: Test Example 5: herbicidal effect by foliage application, plastic box (Table 20, symbol F); assay type: in vivo, southern crabgrass (Digitaria ciliaris); conditions: foliage application, 320 g/ha
# In short: (§4)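 Plants sown in sterilized diluvial soil and grown 14 days in a greenhouse at 25° C to 30° C, then sprayed on the foliage with the compound's emulsion diluted in water to a predetermined herbicide amount. Injury to weeds and crops scored three weeks after application on a visual rating scale.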
# green foxtail [15] = assay: Test Example 5: herbicidal effect by foliage application, plastic box (Table 20, symbol G); assay type: in vivo, green foxtail (Setaria viridis); conditions: foliage application, 320 g/ha
# In short: as §4
# barnyard grass [16] = assay: Test Example 5: herbicidal effect by foliage application, plastic box (Table 20, symbol H); assay type: in vivo, barnyard grass (Echinochloa crus-galli); conditions: foliage application, 320 g/ha
# In short: as §4
# wild oat [17] = assay: Test Example 5: herbicidal effect by foliage application, plastic box (Table 20, symbol I); assay type: in vivo, wild oat (Avena fatua); conditions: foliage application, 320 g/ha
# In short: as §4
# blackgrass [18] = assay: Test Example 5: herbicidal effect by foliage application, plastic box (Table 20, symbol J); assay type: in vivo, blackgrass (Alopecurus myosuroides); conditions: foliage application, 320 g/ha
# In short: as §4
# Italian ryegrass [19] = assay: Test Example 5: herbicidal effect by foliage application, plastic box (Table 20, symbol K); assay type: in vivo, Italian ryegrass (Lolium multiflorum); conditions: foliage application, 320 g/ha
# In short: as §4
# windgrass [20] = assay: Test Example 5: herbicidal effect by foliage application, plastic box (Table 20, symbol L); assay type: in vivo, windgrass (Apera spica-venti); conditions: foliage application, 320 g/ha
# In short: as §4
# velvetleaf [21] = assay: Test Example 5: herbicidal effect by foliage application, plastic box (Table 20, symbol M); assay type: in vivo, velvetleaf (Abutilon theophrasti); conditions: foliage application, 320 g/ha
# In short: as §4
# redroot pigweed [22] = assay: Test Example 5: herbicidal effect by foliage application, plastic box (Table 20, symbol N); assay type: in vivo, redroot pigweed (Amaranthus retroflexus); conditions: foliage application, 320 g/ha, evaluated three weeks after application
# In short: as §4
# lambsquarters [23] = assay: Test Example 5: herbicidal effect by foliage application, plastic box (Table 20, symbol O); assay type: in vivo, lambsquarters (Chenopodium album); conditions: foliage application, 320 g/ha
# In short: as §4
# chickweed [24] = assay: Test Example 5: herbicidal effect by foliage application, plastic box (Table 20, symbol P); assay type: in vivo, common chickweed (Stellaria media); conditions: foliage application, 320 g/ha, evaluated three weeks after application
# In short: as §4
# false cleavers = assay: Test Example 5: herbicidal effect by foliage application, plastic box (Table 20, symbol Q); assay type: in vivo, false cleavers (Galium spurium); conditions: foliage application, 320 g/ha
# In short: as §4
# persian speedwell [25] = assay: Test Example 5: herbicidal effect by foliage application, plastic box (Table 20, symbol R); assay type: in vivo, Persian speedwell (Veronica persica); conditions: foliage application, 320 g/ha
# In short: as §4
# [26] = evaluated three weeks after application
# [27] = amount of applied herbicide 320 g/ha
structure (smiles),measurement,setting,value
COc1cc(F)ccc1-c1sc2ccc(F)cc2c1-c1c(O)c(C)nn(C)c1=O [2-083],Herbicidal effect on A: late watergrass (grade 0-5),late watergrass; 320 g/ha applied herbicide,2 (Herbicidal rate of 20% or more and less than 40%)
same,Herbicidal effect on B: Japanese bulrush (grade 0-5),Japanese bulrush; 320 g/ha applied herbicide,1 (Herbicidal rate of 5% or more and less than 20%)
same,Herbicidal effect on C: oval-leafed pondweed (grade 0-5),oval-leafed pondweed; 320 g/ha applied herbicide,3 (Herbicidal rate of 40% or more and less than 70%)
same,"herbicidal effect on H (barnyard grass), rating 0-5",barnyard grass [1]; 320 g/ha,5 (Herbicidal rate of 90% or more (almost completely withered))
same,"herbicidal effect on D (Chinese sprangletop), rating 0-5",Chinese sprangletop; 320 g/ha,4 (Herbicidal rate of 70% or more and less than 90%)
same,"herbicidal effect on E (rice flat sedge), rating 0-5",rice flat sedge; 320 g/ha,5 (Herbicidal rate of 90% or more (almost completely withered))
same,"herbicidal effect rating, F: southern crabgrass",southern crabgrass [2]; 320 g/ha,4 (Herbicidal rate of 70% or more and less than 90%)
same,"herbicidal effect rating, G: green foxtail",green foxtail [3]; 320 g/ha,2 (Herbicidal rate of 20% or more and less than 40%)
same,"herbicidal effect rating, H: barnyard grass",barnyard grass [4]; 320 g/ha,1 (Herbicidal rate of 5% or more and less than 20%)
same,"herbicidal effect rating, I: wild oat",wild oat [5]; 320 g/ha,3 (Herbicidal rate of 40% or more and less than 70%)
same,"herbicidal effect rating, J: blackgrass",blackgrass [6]; 320 g/ha,5 (Herbicidal rate of 90% or more (almost completely withered))
same,"herbicidal effect rating, K: Italian ryegrass",Italian ryegrass [7]; 320 g/ha,0 (Herbicidal rate of 5% or less (almost no effect))
same,"herbicidal effect rating, L: windgrass",windgrass [8]; 320 g/ha,4 (Herbicidal rate of 70% or more and less than 90%)
same,"herbicidal effect rating, M: velvetleaf",velvetleaf [9]; 320 g/ha,2 (Herbicidal rate of 20% or more and less than 40%)
same,"herbicidal effect rating, N: redroot pigweed",redroot pigweed [10]; 320 g/ha,5 (Herbicidal rate of 90% or more (almost completely withered))
same,"herbicidal effect rating, O: lambsquarters",lambsquarters [11]; 320 g/ha,5 (Herbicidal rate of 90% or more (almost completely withered))
same,"herbicidal effect rating, P: chickweed",chickweed [12]; 320 g/ha,4 (Herbicidal rate of 70% or more and less than 90%)
same,"herbicidal effect rating, R: persian speedwell",persian speedwell [13]; 320 g/ha,4 (Herbicidal rate of 70% or more and less than 90%)
same,herbicidal effect on F: southern crabgrass,southern crabgrass [14]; [26],4 (Herbicidal rate of 70% or more and less than 90%)
same,herbicidal effect on G: green foxtail,green foxtail [15]; [26],5 (Herbicidal rate of 90% or more (almost completely withered))
same,herbicidal effect on H: barnyard grass,barnyard grass [16]; [26],5 (Herbicidal rate of 90% or more (almost completely withered))
same,herbicidal effect on I: wild oat,wild oat [17]; [26],5 (Herbicidal rate of 90% or more (almost completely withered))
same,herbicidal effect on J: blackgrass,blackgrass [18]; [26],5 (Herbicidal rate of 90% or more (almost completely withered))
same,herbicidal effect on K: Italian ryegrass,Italian ryegrass [19]; [26],4 (Herbicidal rate of 70% or more and less than 90%)
same,herbicidal effect on L: windgrass,windgrass [20]; [26],5 (Herbicidal rate of 90% or more (almost completely withered))
same,herbicidal effect on M: velvetleaf,velvetleaf [21]; [26],5 (Herbicidal rate of 90% or more (almost completely withered))
same,herbicidal effect on N: redroot pigweed,redroot pigweed [22],5 (Herbicidal rate of 90% or more (almost completely withered))
same,herbicidal effect on O: lambsquarters,lambsquarters [23]; [26],5 (Herbicidal rate of 90% or more (almost completely withered))
same,herbicidal effect on P: chickweed,chickweed [24],5 (Herbicidal rate of 90% or more (almost completely withered))
same,herbicidal effect on Q: false cleavers,false cleavers; [26],5 (Herbicidal rate of 90% or more (almost completely withered))
same,herbicidal effect on R: persian speedwell,persian speedwell [25]; [26],5 (Herbicidal rate of 90% or more (almost completely withered))
CCOc1cc(F)ccc1-c1oc2ccc(C)cc2c1-c1c(O)c(C)nn(C)c1=O [9-011],"Herbicidal effect, A: late watergrass",late watergrass; [27],3 (Herbicidal rate of 40% or more and less than 70%)
same,"Herbicidal effect, B: Japanese bulrush",Japanese bulrush; [27],2 (Herbicidal rate of 20% or more and less than 40%)
same,"Herbicidal effect, C: oval-leafed pondweed",oval-leafed pondweed; [27],1 (Herbicidal rate of 5% or more and less than 20%)
same,"Herbicidal effect on H (barnyard grass), foliage application",barnyard grass [1]; [27],5 (Herbicidal rate of 90% or more (almost completely withered))
same,"Herbicidal effect on D (Chinese sprangletop), foliage application",Chinese sprangletop; [27],0 (Herbicidal rate of 5% or less (almost no effect))
same,"Herbicidal effect on E (rice flat sedge), foliage application",rice flat sedge; [27],4 (Herbicidal rate of 70% or more and less than 90%)
same,"F: southern crabgrass, herbicidal effect grade",southern crabgrass [2]; [27],2 (Herbicidal rate of 20% or more and less than 40%)
same,"G: green foxtail, herbicidal effect grade",green foxtail [3]; [27],0 (Herbicidal rate of 5% or less (almost no effect))
same,"H: barnyard grass, herbicidal effect grade",barnyard grass [4]; [27],0 (Herbicidal rate of 5% or less (almost no effect))
same,"I: wild oat, herbicidal effect grade",wild oat [5]; [27],0 (Herbicidal rate of 5% or less (almost no effect))
same,"J: blackgrass, herbicidal effect grade",blackgrass [6]; [27],2 (Herbicidal rate of 20% or more and less than 40%)
same,"K: Italian ryegrass, herbicidal effect grade",Italian ryegrass [7]; [27],0 (Herbicidal rate of 5% or less (almost no effect))
same,"L: windgrass, herbicidal effect grade",windgrass [8]; [27],3 (Herbicidal rate of 40% or more and less than 70%)
same,"M: velvetleaf, herbicidal effect grade",velvetleaf [9]; [27],0 (Herbicidal rate of 5% or less (almost no effect))
same,"N: redroot pigweed, herbicidal effect grade",redroot pigweed [10]; [27],3 (Herbicidal rate of 40% or more and less than 70%)
same,"O: lambsquarters, herbicidal effect grade",lambsquarters [11]; [27],4 (Herbicidal rate of 70% or more and less than 90%)
same,"P: chickweed, herbicidal effect grade",chickweed [12]; [27],1 (Herbicidal rate of 5% or more and less than 20%)
same,"R: persian speedwell, herbicidal effect grade",persian speedwell [13]; [27],3 (Herbicidal rate of 40% or more and less than 70%)
same,herbicidal effect on southern crabgrass (F),southern crabgrass [14]; three weeks after application,2 (Herbicidal rate of 20% or more and less than 40%)
same,herbicidal effect on green foxtail (G),green foxtail [15]; three weeks after application,2 (Herbicidal rate of 20% or more and less than 40%)
same,herbicidal effect on barnyard grass (H),barnyard grass [16]; three weeks after application,4 (Herbicidal rate of 70% or more and less than 90%)
same,herbicidal effect on wild oat (I),wild oat [17]; three weeks after application,3 (Herbicidal rate of 40% or more and less than 70%)
same,herbicidal effect on blackgrass (J),blackgrass [18]; three weeks after application,4 (Herbicidal rate of 70% or more and less than 90%)
same,herbicidal effect on Italian ryegrass (K),Italian ryegrass [19]; three weeks after application,0 (Herbicidal rate of 5% or less (almost no effect))
same,herbicidal effect on windgrass (L),windgrass [20]; three weeks after application,1 (Herbicidal rate of 5% or more and less than 20%)
same,herbicidal effect on velvetleaf (M),velvetleaf [21]; three weeks after application,3 (Herbicidal rate of 40% or more and less than 70%)
same,herbicidal effect on lambsquarters (O),lambsquarters [23]; three weeks after application,4 (Herbicidal rate of 70% or more and less than 90%)
same,herbicidal effect on false cleavers (Q),false cleavers; three weeks after application,4 (Herbicidal rate of 70% or more and less than 90%)
same,herbicidal effect on persian speedwell (R),persian speedwell [25]; three weeks after application,4 (Herbicidal rate of 70% or more and less than 90%)
